Experimental data reported in article PMC11790660 (Frontiers in Chemistry, 2025).
Where two headings read alike, the source gives them in different places.

How the values were obtained:
[1] = test system: HeLa; assay: cells; format: cell-based; details: read-out: IC50 against cell proliferation, HeLa
[2] = test system: A549; assay: cells; format: cell-based
[3] = test system: MCF-7; assay: cells; format: cell-based
[4] = test system: HepG2 cell lines (liver tumor cell); details: for IC50: read-out: IC50 HepG2
[5] = test system: LO2 cell lines (normal liver cell); details: for IC50: read-out: IC50 LO2
[6] = test system: WI38 normal cells; details: for IC50: read-out: IC50 WI38
[7] = test system: HepG2 cell lines (liver tumor cell); assay: cells; details: Homo sapiens, HepG2, 24 h, read-out: IC50 HepG2
[8] = test system: LO2 cell lines (normal liver cell); assay: cells; details: Homo sapiens, L02, 24 h, read-out: IC50 LO2
[9] = test system: WI38 normal cells; assay: cells; details: Homo sapiens, WI-38, read-out: IC50 WI38
[10] = H2S release, methylene blue (MB+) method; format: physicochemical; details: MB+ method with TECP or cysteine; different temperature and pH
[11] = molecular target: PI3Kα (Homo sapiens, UniProt P42336); assay: In vitro PI3K enzyme inhibitory assay (ADP-Glo), PI3Kα; format: biochemical; details: read-out: PI3Kα % inhibition at 10 μM
[12] = molecular target: PI3Kβ (Homo sapiens, UniProt P42338); assay: In vitro PI3K enzyme inhibitory assay (ADP-Glo), PI3Kβ; format: biochemical; details: read-out: PI3Kβ % inhibition at 10 μM
[13] = molecular target: PI3Kγ (Homo sapiens, UniProt P48736); assay: In vitro PI3K enzyme inhibitory assay (ADP-Glo), PI3Kγ; format: biochemical; details: read-out: PI3Kγ % inhibition at 10 μM
[14] = test system: AKT; assay: In vitro AKT enzyme inhibitory assay; format: biochemical
[15] = Homo sapiens, A549, read-out: IC50 against cell proliferation, A549
[16] = Homo sapiens, MCF7, read-out: IC50 against cell proliferation, MCF-7
[17] = read-out: IC50 against cell proliferation, A549
[18] = read-out: IC50 against cell proliferation, MCF-7

Sequence of PI3Kα (P42336 whole entry): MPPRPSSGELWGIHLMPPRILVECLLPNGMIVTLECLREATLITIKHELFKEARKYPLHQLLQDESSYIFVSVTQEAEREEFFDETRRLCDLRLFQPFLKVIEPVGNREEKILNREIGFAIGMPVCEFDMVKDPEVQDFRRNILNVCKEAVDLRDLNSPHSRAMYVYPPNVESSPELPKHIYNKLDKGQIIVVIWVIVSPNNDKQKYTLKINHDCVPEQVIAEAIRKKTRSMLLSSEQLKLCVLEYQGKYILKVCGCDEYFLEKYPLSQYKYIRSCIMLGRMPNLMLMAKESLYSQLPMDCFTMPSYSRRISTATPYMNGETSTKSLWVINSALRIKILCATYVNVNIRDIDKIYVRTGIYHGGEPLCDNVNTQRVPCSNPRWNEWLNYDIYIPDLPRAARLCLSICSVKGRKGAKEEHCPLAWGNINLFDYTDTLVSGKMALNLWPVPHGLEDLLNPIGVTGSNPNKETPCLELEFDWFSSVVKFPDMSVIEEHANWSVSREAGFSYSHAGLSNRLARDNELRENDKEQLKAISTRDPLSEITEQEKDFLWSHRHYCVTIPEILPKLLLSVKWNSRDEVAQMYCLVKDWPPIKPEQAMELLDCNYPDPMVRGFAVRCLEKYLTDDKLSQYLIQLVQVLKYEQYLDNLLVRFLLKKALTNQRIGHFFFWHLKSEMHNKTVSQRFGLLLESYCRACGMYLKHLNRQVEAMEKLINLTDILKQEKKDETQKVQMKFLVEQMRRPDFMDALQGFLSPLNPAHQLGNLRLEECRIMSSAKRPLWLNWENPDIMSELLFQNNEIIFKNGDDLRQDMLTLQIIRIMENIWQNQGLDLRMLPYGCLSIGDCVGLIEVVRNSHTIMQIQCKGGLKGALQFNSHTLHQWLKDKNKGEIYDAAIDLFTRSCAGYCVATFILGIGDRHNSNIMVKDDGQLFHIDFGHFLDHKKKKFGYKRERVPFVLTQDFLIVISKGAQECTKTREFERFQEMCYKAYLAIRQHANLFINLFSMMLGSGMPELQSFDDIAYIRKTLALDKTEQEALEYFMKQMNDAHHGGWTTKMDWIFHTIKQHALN
Sequence of PI3Kα (P27986 whole entry partner): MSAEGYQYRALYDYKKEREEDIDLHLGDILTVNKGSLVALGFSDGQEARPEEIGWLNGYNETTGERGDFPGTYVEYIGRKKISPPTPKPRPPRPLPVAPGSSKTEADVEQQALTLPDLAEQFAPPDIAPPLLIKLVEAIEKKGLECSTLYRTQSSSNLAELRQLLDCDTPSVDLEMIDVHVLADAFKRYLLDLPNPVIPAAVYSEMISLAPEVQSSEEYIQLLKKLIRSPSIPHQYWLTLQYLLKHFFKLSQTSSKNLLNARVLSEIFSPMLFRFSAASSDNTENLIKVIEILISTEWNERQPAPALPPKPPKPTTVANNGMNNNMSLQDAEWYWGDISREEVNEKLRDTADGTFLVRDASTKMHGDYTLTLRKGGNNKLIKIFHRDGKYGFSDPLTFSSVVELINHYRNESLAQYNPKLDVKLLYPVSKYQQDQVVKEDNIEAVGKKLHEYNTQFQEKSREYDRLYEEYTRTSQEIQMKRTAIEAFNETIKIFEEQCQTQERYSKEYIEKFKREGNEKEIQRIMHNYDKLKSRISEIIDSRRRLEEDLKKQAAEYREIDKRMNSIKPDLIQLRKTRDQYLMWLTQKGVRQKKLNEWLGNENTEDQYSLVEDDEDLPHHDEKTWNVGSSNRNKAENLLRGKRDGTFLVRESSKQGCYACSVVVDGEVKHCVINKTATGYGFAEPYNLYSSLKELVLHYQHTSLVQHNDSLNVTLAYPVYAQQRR
Sequence of PI3Kβ (P42338 whole entry): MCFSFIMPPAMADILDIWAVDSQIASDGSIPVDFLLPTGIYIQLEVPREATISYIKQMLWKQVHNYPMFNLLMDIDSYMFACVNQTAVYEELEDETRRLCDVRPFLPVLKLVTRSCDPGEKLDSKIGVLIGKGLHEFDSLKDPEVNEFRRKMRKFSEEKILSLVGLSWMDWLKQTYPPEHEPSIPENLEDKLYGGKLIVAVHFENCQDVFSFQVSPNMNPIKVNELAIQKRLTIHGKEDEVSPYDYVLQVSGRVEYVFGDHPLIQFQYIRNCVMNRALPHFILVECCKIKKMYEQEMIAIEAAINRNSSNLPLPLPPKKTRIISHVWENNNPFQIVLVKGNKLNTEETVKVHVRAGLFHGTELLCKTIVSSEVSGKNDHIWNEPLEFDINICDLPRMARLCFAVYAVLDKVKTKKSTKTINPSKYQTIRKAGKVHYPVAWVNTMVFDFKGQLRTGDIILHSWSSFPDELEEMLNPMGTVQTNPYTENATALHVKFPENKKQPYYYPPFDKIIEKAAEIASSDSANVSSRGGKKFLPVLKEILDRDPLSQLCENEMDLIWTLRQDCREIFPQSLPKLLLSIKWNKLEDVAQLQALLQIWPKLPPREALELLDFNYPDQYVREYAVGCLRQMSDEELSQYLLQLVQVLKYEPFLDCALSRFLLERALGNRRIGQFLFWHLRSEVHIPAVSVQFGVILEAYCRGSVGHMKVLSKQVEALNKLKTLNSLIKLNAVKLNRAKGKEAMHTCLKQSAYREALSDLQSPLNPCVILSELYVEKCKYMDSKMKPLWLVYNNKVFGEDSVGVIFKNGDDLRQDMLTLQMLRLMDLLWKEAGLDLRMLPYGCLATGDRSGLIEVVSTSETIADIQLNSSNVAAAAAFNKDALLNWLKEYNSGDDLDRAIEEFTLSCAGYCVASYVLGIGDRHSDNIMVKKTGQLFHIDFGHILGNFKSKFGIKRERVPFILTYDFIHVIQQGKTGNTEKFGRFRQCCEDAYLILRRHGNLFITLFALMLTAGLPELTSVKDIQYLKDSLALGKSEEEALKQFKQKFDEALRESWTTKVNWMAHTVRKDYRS
Sequence of PI3Kβ (P27986 whole entry partner): as the sequence (P27986 whole entry partner) above
Sequence of PI3Kγ (P48736 whole entry): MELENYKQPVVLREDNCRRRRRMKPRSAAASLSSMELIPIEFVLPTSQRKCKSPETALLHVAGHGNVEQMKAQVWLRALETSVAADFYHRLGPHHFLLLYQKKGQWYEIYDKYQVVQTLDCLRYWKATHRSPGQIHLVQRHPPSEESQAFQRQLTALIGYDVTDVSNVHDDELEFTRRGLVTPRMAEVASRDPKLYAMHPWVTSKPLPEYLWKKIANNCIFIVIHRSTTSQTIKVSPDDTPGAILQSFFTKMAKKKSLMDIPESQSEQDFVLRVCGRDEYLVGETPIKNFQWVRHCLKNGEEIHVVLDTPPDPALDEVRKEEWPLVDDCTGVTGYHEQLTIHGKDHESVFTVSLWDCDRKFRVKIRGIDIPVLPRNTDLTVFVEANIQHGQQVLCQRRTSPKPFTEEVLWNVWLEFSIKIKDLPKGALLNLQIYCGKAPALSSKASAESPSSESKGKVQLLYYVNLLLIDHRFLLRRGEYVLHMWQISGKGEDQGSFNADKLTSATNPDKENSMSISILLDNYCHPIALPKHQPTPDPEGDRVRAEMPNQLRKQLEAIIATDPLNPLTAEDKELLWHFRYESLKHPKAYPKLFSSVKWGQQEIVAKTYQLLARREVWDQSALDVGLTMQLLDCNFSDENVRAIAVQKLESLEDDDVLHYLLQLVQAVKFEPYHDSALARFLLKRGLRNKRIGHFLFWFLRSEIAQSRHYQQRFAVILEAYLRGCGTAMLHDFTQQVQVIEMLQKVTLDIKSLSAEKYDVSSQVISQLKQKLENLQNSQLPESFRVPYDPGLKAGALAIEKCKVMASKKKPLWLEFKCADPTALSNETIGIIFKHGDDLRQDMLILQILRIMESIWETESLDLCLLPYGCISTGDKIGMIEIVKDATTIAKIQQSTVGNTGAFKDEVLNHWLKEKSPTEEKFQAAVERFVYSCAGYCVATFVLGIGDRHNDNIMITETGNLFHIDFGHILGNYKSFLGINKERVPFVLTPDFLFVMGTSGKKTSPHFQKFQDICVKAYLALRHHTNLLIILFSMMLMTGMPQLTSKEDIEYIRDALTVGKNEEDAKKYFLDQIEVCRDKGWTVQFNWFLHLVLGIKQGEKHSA

Row | inhibition at 10 µM [11] | inhibition at 10 µM [12] | inhibition at 10 µM [13] | AKT % inhibition at 10 μM [14] | SMILES | IC50 ([1]; Homo sapiens, HeLa) | IC50 [2, 15] | IC50 [3, 16] | Toxicity in words, HepG2 [4] | Toxicity in words, LO2 [5] | Toxicity in words, WI38 [6] | IC50 [7] | IC50 [8] | IC50 [9] | IC50 [1] | IC50 [2, 17] | IC50 [3, 18] | IC50 [4] | IC50 [5] | IC50 [6] | H2S release amount (in words) [10]
1 |  |  |  |  | S=P1(c2ccccc2)NCCO1 (stereo not drawn) [Compound S2, 2-phenyl-1,3,2-oxazaphospholidine 2-sulfide] | 736 ± 22.1 µM | 650 ± 32.5 µM | 455 ± 3.2 µM | low cytotoxicity | low cytotoxicity | low cytotoxicity | > 400 µM | > 200 µM | > 200 µM |  |  |  |  |  |  | 
2 |  |  |  |  | S=P1(c2ccccc2)NCCCO1 (stereo not drawn) [Compound S3, 2-phenyl-1,3,2-oxazaphosphinane 2-sulfide] | 826 ± 17.1 µM | 700 ± 32.3 µM | 470 ± 4.1 µM | low cytotoxicity | low cytotoxicity | low cytotoxicity | > 400 µM | > 200 µM | > 200 µM |  |  |  |  |  |  | 
3 |  |  |  |  | S=P1(c2ccccc2)NCCCCO1 (stereo not drawn) [Compound S4, 2-phenyl-1,3,2-oxazaphosphepane 2-sulfide] | 836 ± 19.7 µM | 720 ± 22.4 µM | 472 ± 3.3 µM | low cytotoxicity | low cytotoxicity | low cytotoxicity | > 400 µM | > 200 µM | > 200 µM |  |  |  |  |  |  | 
4 |  |  |  |  | S=P1(c2ccccc2)NCCCCCO1 (stereo not drawn) [Compound S5, 2-phenyl-1,3,2-oxazaphosphocane 2-sulfide] | 622 ± 20.6 µM | 680 ± 20.5 µM | 468 ± 3.4 µM | low cytotoxicity | low cytotoxicity | low cytotoxicity | > 400 µM | > 200 µM | > 200 µM |  |  |  |  |  |  | 
5 |  |  |  |  | S=P1(c2ccccc2)NCCCCCCO1 (stereo not drawn) [Compound S6, 2-phenyl-1,3,2-oxazaphosphonane 2-sulfide] | 645 ± 15.5 µM | 710 ± 22.6 µM | 471 ± 5.4 µM | low cytotoxicity | low cytotoxicity | low cytotoxicity | > 400 µM | > 200 µM | > 200 µM |  |  |  |  |  |  | 
6 |  |  |  |  | S=P1(c2ccccc2)NCCCCN1 [Compound S7, 2-phenyl-1,3,2-diazaphosphepane 2-sulfide] | 655 ± 15.3 µM | 730 ± 32.3 µM | 473 ± 4.2 µM | low cytotoxicity | low cytotoxicity | low cytotoxicity | > 400 µM | > 200 µM | > 200 µM |  |  |  |  |  |  | 
7 |  |  |  |  | S=P1(c2ccccc2)OCCCCO1 [Compound S8, 2-phenyl-1,3,2-dioxaphosphepane 2-sulfide] |  |  |  | low cytotoxicity | low cytotoxicity | low cytotoxicity |  |  |  | 730 ± 20.5 µM | 803 ± 20.8 µM | 480 ± 3.8 µM | > 400 µM | > 200 µM | > 200 µM | 
8 |  |  |  |  | S=P1(c2ccccc2)NCNCN1 [Compound S9, 2-phenyl-1,3,5,2-triazaphosphinane 2-sulfide] | 730 ± 20.7 µM | 590 ± 27.1 µM | 459 ± 3.7 µM | low cytotoxicity | low cytotoxicity | low cytotoxicity | > 400 µM | > 200 µM | > 200 µM |  |  |  |  |  |  | 
9 |  |  |  |  | S=P1(c2ccccc2)SCCS1 [Compound S10, 2-phenyl-1,3,2-dithiaphospholane 2-sulfide] | 603 ± 20.8 µM | 557 ± 18.5 µM | 455 ± 2.4 µM | low cytotoxicity | low cytotoxicity | low cytotoxicity | > 400 µM | > 200 µM | > 200 µM |  |  |  |  |  |  | 
10 |  |  |  |  | S=P1(c2ccccc2)Oc2ccccc2-c2ccccc2O1 [Compound S12, 6-phenyldibenzo [d, f][1,3,2] dioxaphosphepine 6-sulfide] | 703 ± 17.7 µM | 640 ± 15.5 µM | 164 ± 4.1 µM | low cytotoxicity | low cytotoxicity | low cytotoxicity | > 400 µM | > 200 µM | > 200 µM |  |  |  |  |  |  | 
11 |  |  |  |  | S=P1(c2ccccc2)OCc2ccccc2CO1 [Compound S13, 3-phenyl-1,5-dihydrobenzo [e] [1,3,2] dioxaphosphepine 3-sulfide] | 633 ± 18.3 µM | 500 ± 18.2 µM | 460 ± 3.5 µM | low cytotoxicity | low cytotoxicity | low cytotoxicity | > 400 µM | > 200 µM | > 200 µM |  |  |  |  |  |  | 
12 |  |  |  |  | Cc1ccc2c(c1)NP(=S)(c1ccccc1)O2 (stereo not drawn) [Compound S14, 5-methyl-2-phenyl-3H benzo [d][1,3,2] oxazaphosphole 2-sulfide] |  |  |  |  |  |  |  |  |  | 530 ± 11.3 µM | 220 ± 20.1 µM | 31 ± 2.5 µM | > 400 µM | > 200 µM | > 200 µM | the highest amount of hydrogen sulfide was released
13 |  |  |  |  | S=P1(c2ccccc2)Oc2ccc3cccc4c5cccc6ccc(c(c2c34)c65)O1 [Compound S15, 2-phenylperyleno [1,12-def][1,3,2] dioxaphosphepine 2-sulfide] | 733 ± 28.2 µM | 520 ± 22.7 µM | 266 ± 3.5 µM |  |  |  | > 400 µM | > 200 µM | > 200 µM |  |  |  |  |  |  | 
14 |  |  |  |  | N#Cc1ccc2c(c1)NP(=S)(c1ccccc1)O2 (stereo not drawn) [Compound S16, 2-phenyl-3H-benzo [d][1,3,2] oxazaphosphole-5-carbonitrile 2-sulfide] |  |  |  |  |  |  |  |  |  | 520 ± 20.3 µM | 280 ± 28.3 µM | 28 ± 2.7 µM | > 400 µM | > 200 µM | > 200 µM | the highest amount of hydrogen sulfide was released
15 | 100% | 5% | 12% | 100% | Oc1cccc(-c2nc(N3CCOCC3)c3oc4ncccc4c3n2)c1 [PI-103, reference compound] |  |  |  |  |  |  |  |  |  |  |  |  |  |  |  | 
